Columns and labels:
[1] = Particle size and polydispersity index of nanoparticle compositions (Zetasizer Nano ZS); assay type: physicochemical; conditions: Table 1c; nanoparticle compositions
Method: A Zetasizer Nano ZS (Malvem Instruments Ltd, Malvem, Worcestershire, UK) can be used to determine the particle size, the polydispersity index (PDI) and the zeta potential of the nanoparticle compositions in 1×PBS in determining particle size and 15 mM PBS in determining zeta potential.

[2] = Encapsulation efficiency of RNA (QUANT-IT RIBOGREEN RNA assay); assay type: physicochemical; conditions: Table 1c; nanoparticle compositions
Outline: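 Samples diluted to about 5 μg/mL RNA in TE buffer pH 7.5, treated with buffer or 2% Triton X-100 for 15 min at 37° C, then stained with RiboGreen (1:100). Fluorescence at about 480/520 nm, blank-subtracted; free RNA fraction is intact over Triton-disrupted signal.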

[3] = Lipid purity change after storage in EtOH for 96 h at 25 or 37 °C; assay type: physicochemical
Method: Nanoparticle compositions including a therapeutic and/or prophylactic agent can be optimized according to the selection of a compound according to one of formulae (I), (Ia1)-(Ia10), (Ib), (Ic), (Id), (Id1)-(Id10), (Ie), (Ie1)-(Ie6), (II), (IIa), (III), and (IIIa), the selection of additional lipids, the amount of each lipid in the lipid component, and the wt:wt ratio of the lipid component to the therapeutic and/or prophylactic agent, as described herein. Initial studies were performed to compare the delivery efficiency of nanoparticle compositions including various compounds according to one of formulae (I), (Ia1)-(Ia10), (Ib), (Ic), (Id), (Id1)-(Id10), (Ie), (Ie1)-(Ie6), (II), (IIa), (III), and (IIIa). The cationic lipid MC3 is a current standard in the art. Also determined was the stability of nanoparticles of the disclosure, i.e., the purity after storage in EtOH for 96h at 25° C. or 37° C. (Table Id).

[4] = pKa of nanoparticle compositions; assay type: physicochemical; conditions: Table 1c
hEPO expression = hEPO expression in CD-1 mice compared with MC3; assay type: in vivo; conditions: intravenous, 0.5 mpk, Table 7e
Excerpt: In contrast, hEPO expression in rats induced by administration of a nanoparticle composition including a compound according to one of formulae (I), (Ia1)-(Ia6), (Ib), (II), (IIa), (III), and (IIIa) was substantially […] than that measured for MC3. […] Tables 7c and 7d show additional protein expressions and clearance data from compositions with various compounds disclosed herein as compared to with MC3. Tables 7e, 7f and 7g show hEPO expression data in CD-1 mice at a dose of 0.5 mpk.

[5] = Lipid clearance: % dose remaining in liver of CD-1 mice; assay type: in vivo; conditions: intravenous, 0.5 mg/kg, CD-1 mouse, Table 8a
Outline: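 Nanoparticle compositions of the disclosed lipids given intravenously and benchmarked against MC3. Protein expression reported as AUC (p/s*h) and clearance as % dose remaining in liver of CD-1 mice; hEPO expression in CD-1 mice measured at 0.5 mpk.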

Structure (SMILES)	PDI [1]	Size (nm) [1]	EE (%) [2]	Lipid % change purity in EtOH, 25° C., 96 h [3]	Lipid % change purity in EtOH, 37° C., 96 h [3]	pKa [4]	% Dose Remaining 24 hr [5]	AUC (p/s*h) CD-1 mice 0.5 mpk (hEPO expression)
CCCCCCCCCCCCCCN(CCCOC(=O)CCCCCCCCC)CCC1CCN(C(=O)CN(CCCCCCCCC)CCN(CCCCCCCCC)CCCCCCCCC)CC1 [Compound 92, 3-((2-(1-(N-(2-(Dinonylamino)ethyl)-N-nonylglycyl)piperidin-4-yl)ethyl)(tetradecyl)amino)propyl decanoate]	0.17	73.8 nm	97.1%	4.5%	9%	6.53	0.10%	8.25E+07 p/s*h
CCCCCCCCCCCCCCN(CCCCCCCC(=O)OCCCCC)CCC1CCN(C(=O)CN(CCCCCCCCC)CCN(CCCCCCCCC)CCCCCCCCC)CC1 [Compound 93, Pentyl 8-((2-(1-(N-(2-(dinonylamino)ethyl)-N-nonylglycyl)piperidin-4-yl)ethyl)(tetradecyl)amino)octanoate]	0.17	75.6 nm	97.7%	0%	2.2%	6.6	10.37%	8.63E+07 p/s*h
CCCCCCCCCCCCCCN(CCCCCC(=O)OCCCCCCC)CCC1CCN(C(=O)CN(CCCCCCCCC)CCN(CCCCCCCCC)CCCCCCCCC)CC1 [Compound 94, Heptyl 6-((2-(1-(N-(2-(dinonylamino)ethyl)-N-nonylglycyl)piperidin-4-yl)ethyl)(tetradecyl)amino)hexanoate]	0.20	74.6 nm	98.4%	5.9%	8.3%	6.65	18.52%	2.39E+07 p/s*h
CCCCCCCCCN(CCCCCCCCC)CCN(CCCCCCCCC)CC(=O)N1CCC(CCOC(=O)CN(CCCCCCCCC)CCCCCCCCC)C1 (centres unmarked) [Compound 103, 2-(1-(N-(2-(Dinonylamino)ethyl)-N-nonylglycyl)pyrrolidin-3-yl)ethyl Dinonylglycinate]	0.17	76.9 nm	99.0%	1.5%	5.7%	7.25	71.45%	1.82E+08 p/s*h
CCCCCCCCCN(CCCCCCCCC)CCN(CCCCCCCCC)CC(=O)OC1CCC(OC(=O)CN(CCCCCCCCC)CCCCCCCCC)CC1 (centres unmarked) [Compound 115, 4-((N-(2-(Dinonylamino)ethyl)-N-nonylglycyl)oxy)cyclohexyl dinonylglycinate]	0.16	66.0 nm	97.0%	43.1%	59.5%	5.01	82.18%	2.31E+06 p/s*h
CCCCCCCCCCCCCCN(CCCCCCCCCCCC(=O)OC)CCC1CCN(C(=O)CN(CCCCCCCCC)CCN(CCCCCCCCC)CCCCCCCCC)CC1 [Compound 116, Methyl 12-((2-(1-(N-(2-(dinonylamino)ethyl)-N-nonylglycyl)piperidin-4-yl)ethyl)(tetradecyl)amino)dodecanoate]	0.19	77.1 nm	98.9%	2.2%	2%	6.55	6.22%	1.01E+08 p/s*h
CCCCCCCCCCCCCCN(CCCCCCCC(=O)OCCCCC)CCC1CCCN(C(=O)CN(CCCCCCCCC)CCN(CCCCCCCCC)CCCCCCCCC)C1 (centres unmarked) [Compound 120, Pentyl 8-((2-(1-(N-(2-(dinonylamino)ethyl)-N-nonylglycyl)piperidin-3-yl)ethyl)(tetradecyl)amino)octanoate]	0.21	78.7 nm	99.0%	0.8%	2.9%	6.49	9.32%	4.17E+07 p/s*h

Continued, in another order:

PDI [1]	Size (nm) [1]	EE (%) [2]	Lipid % change purity in EtOH, 25° C., 96 h [3]	Lipid % change purity in EtOH, 37° C., 96 h [3]	pKa [4]	% Dose Remaining 24 hr [5]	Structure (SMILES)	AUC (p/s*h) CD-1 mice 0.5 mpk (hEPO expression)
0.21	82.9 nm	97.6%	1%	2.3%	6.74	9.19%	CCCCCCCCCCCCCCN(CCCCCC(=O)OCCCCCCC)CC(=O)N1CCN(C(=O)CN(CCCCCCCCC)CCN(CCCCCCCCC)CCCCCCCCC)CC1 [Compound 91, Heptyl 6-((2-(4-(N-(2-(dinonylamino)ethyl)-N-nonylglycyl)piperazin-1-yl)-2-oxoethyl)(tetradecyl)amino)hexanoate]	3.22E+07 p/s*h
0.19	80.6 nm	96.6%	4%	3.6%	6.99	38.15%	CC/C=C\COC(=O)CCCN(CCCCCCCCC)CC(=O)N1CCN(C(=O)CN(CCCCCCCCC)CCN(CCCCCCCCC)CCCCCCCCC)CC1 [Compound 107, (Z)-Pent-2-en-1-yl 4-((2-(4-(N-(2-(dinonylamino)ethyl)-N-nonylglycyl)piperazin-1-yl)-2-oxoethyl)(nonyl)amino)butanoate]	1.76E+08 p/s*h
0.16	75.0 nm	95.0%	0%	4.1%	7.27	0.54%	CCCCCCCCCN(CCCCCCCCC)CCN(CCCCCCCCC)CC(=O)N1CCN(C(=O)CN(CCCCCCCCC)CCCCCOC(=O)OC)CC1 [Compound 109, 5-((2-(4-(N-(2-(Dinonylamino)ethyl)-N-nonylglycyl)piperazin-1-yl)-2-oxoethyl)(nonyl)amino)pentyl methyl carbonate]	5.56E+07 p/s*h
0.21	86.8 nm	96.7%	6.3%	6.5%	6.82	59.89%	CCCCCCCCCN(CCCCCCCCC)CCN(CCCCCCCCC)CC(=O)N1CCN(C(=O)C(C)N(CCCCCCCCC)CCCC(=O)OCCCCC)CC1 (centres unmarked) [Compound 111, Pentyl 4-((1-(4-(N-(2-(dinonylamino)ethyl)-N-nonylglycyl)piperazin-1-yl)-1-oxopropan-2-yl)(nonyl)amino)butanoate]	1.75E+08 p/s*h
0.23	77.2 nm	98.1%	2.6%	9%	6.64	38.43%	CCCCCCCCCN(CCCCCCCCC)CCN(CCCCCCCCC)CC(=O)N1CCC(CCOC(=O)CN(CCCCCCCCC)CCCCCCCCC)CC1 [Compound 114, 2-(1-(N-(2-(Dinonylamino)ethyl)-N-nonylglycyl)piperidin-4-yl)ethyl dinonylglycinate]	7.86E+07 p/s*h
0.20	84.6 nm	95.2%	2.9%	4.7%	6.71	2.03%	CCCCCCCCCCCCCCN(CCCCCCCCCCCC(=O)OC)CC(=O)N1CCN(C(=O)CN(CCCCCCCCC)CCN(CCCCCCCCC)CCCCCCCCC)CC1 [Compound 117, Methyl 12-((2-(4-(N-(2-(dinonylamino)ethyl)-N-nonylglycyl)piperazin-1-yl)-2-oxoethyl)(tetradecyl)amino)dodecanoate]	6.91E+07 p/s*h

Source: patent US12077501B2, “Compounds and compositions for intracellular delivery of agents” (ModernaTX, Inc., priority 2017, dated 2024)
